In patent US11912682B2, “Isoindolinone compounds” (Monte Rosa Therapeutics, Inc., priority 2021, dated 2024):
Where two headings read alike, the source gives them in different places.

Experiments:
[1] = biological target: Full length wild-type cereblon CRBN (Homo sapiens (Human), UniProt Q96SW2); assay: fluorescence polarization (FP) assay, cereblon binding
Source text: Compound activity was monitored in a fluorescence polarization (FP) homogeneous assay using 1-[5-({2-[2-(2-{[2-(2,6-dioxopiperidin-3-yl)-1,3-dioxo-2,3-dihydro-1H-isoindol-4-yl]oxy}acetamido)ethoxy]ethyl}carbamoyl)pentyl]-3,3-dimethyl-2-[(1E,3E)-5-[(2E)-1,3,3-trimethyl-5-sulfo-2,3-dihydro-1H-indol-2-ylidene]penta-1,3-dien-1-yl]-3H-indol-1-ium-5-sulfonate as a fluorescent probe. Unless otherwise stated, all reagents were purchased from Sigma Aldrich. […] Full length wild-type cereblon CRBN (80.0 nM, 10 μL) was incubated in assay buffer containing 20 mM HEPES (pH 8.0), […], 0.5 mM TCEP and 0.05% Tween 20 in the presence or absence of compound (300 nL). Inhibitors were stored as 10 mM DMSO stocks in an inert environment (low humidity, dark, low oxygen, room temperature) using the Storage Pod System. […] Following incubation at room temperature for 30 min, the assay was initiated by dispensing the probe to a final concentration of 5 nM (2.5 nL of a 20 μM stock) using the Echo ESXX. […] The FP signal was subsequently normalized to the no-compound control (i.e., DMSO). Analysis and IC50 values were derived using Dotmatics (Dotmatics UK) software.

GSPT1 = GSPT1 (Homo sapiens (Human), UniProt P15170+Q96SW2); assay: immunofluorescence assay for GSPT1 degradation in CAL-51 cells (Example 4); format: cell-based
GSPT1, sequence (P15170 whole entry): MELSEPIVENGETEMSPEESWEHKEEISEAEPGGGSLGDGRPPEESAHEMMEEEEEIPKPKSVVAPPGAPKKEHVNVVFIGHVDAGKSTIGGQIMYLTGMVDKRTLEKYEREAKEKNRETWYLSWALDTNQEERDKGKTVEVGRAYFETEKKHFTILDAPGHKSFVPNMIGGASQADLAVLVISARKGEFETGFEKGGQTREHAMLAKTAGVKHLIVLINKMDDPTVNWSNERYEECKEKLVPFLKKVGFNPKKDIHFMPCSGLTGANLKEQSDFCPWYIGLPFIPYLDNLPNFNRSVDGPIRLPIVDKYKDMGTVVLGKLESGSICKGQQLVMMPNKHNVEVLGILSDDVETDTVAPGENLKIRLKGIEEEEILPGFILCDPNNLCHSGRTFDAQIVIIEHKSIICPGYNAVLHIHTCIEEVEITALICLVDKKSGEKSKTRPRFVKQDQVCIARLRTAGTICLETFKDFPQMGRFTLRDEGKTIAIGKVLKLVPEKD
GSPT1, sequence (Q96SW2 whole entry): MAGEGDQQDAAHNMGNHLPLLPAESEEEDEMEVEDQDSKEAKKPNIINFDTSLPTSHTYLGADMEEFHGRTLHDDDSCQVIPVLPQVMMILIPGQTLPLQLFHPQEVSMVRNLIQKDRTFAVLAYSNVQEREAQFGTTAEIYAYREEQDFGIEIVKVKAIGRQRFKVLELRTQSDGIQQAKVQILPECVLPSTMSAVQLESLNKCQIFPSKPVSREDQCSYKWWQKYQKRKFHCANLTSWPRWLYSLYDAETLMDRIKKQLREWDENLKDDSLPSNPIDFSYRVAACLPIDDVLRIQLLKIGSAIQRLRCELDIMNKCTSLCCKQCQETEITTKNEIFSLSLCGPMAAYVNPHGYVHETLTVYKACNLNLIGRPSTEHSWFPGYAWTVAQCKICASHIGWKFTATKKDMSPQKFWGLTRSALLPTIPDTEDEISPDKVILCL
GSPT1, sequence (Q16531 2-1140 partner): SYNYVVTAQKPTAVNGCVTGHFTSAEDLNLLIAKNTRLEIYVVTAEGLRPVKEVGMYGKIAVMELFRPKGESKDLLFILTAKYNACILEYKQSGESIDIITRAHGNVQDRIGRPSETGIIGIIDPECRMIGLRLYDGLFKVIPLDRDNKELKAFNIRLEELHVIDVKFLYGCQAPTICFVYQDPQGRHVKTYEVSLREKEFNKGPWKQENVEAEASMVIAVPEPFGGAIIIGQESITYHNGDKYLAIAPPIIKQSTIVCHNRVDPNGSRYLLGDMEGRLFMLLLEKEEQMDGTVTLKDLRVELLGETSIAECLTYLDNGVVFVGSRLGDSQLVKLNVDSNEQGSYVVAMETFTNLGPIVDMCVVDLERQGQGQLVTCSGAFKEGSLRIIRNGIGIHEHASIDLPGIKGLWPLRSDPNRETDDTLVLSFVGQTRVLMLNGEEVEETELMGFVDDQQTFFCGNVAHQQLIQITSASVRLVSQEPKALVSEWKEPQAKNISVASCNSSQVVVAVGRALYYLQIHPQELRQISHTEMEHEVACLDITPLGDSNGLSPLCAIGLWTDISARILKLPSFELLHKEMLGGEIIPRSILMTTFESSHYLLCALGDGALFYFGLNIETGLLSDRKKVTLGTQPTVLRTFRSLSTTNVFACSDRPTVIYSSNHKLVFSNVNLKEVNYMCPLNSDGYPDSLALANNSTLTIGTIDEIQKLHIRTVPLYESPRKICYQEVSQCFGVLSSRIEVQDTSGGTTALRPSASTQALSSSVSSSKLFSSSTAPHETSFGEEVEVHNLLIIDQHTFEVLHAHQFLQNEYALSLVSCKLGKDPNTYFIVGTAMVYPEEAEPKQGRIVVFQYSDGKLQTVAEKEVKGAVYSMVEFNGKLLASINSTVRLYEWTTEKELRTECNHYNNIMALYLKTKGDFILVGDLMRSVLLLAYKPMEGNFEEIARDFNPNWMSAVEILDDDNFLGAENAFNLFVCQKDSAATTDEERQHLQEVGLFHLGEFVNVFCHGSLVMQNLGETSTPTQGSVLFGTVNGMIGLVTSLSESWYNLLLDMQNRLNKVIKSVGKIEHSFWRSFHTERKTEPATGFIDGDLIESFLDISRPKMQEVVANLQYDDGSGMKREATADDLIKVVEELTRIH
Outline: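 CAL-51 cells on fibronectin-coated plates were treated 6 h with serial dilutions (30 μM to 0.1 nM), then fixed and immunostained for GSPT1 with DAPI and phalloidin counterstains. Per-cell mean GSPT1 intensity from high-content imaging, normalized to controls; DC50 by non-linear regression.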

[2] = 6 hours, read-out: Activity for GSPT1 degradation, Code (DC50)
[3] = GSPT1 degradation, read-out: DC50 value

Full length wild-type cereblon CRBN, sequence (Q96SW2 whole entry): as the sequence (Q96SW2 whole entry) above

| Structure (SMILES) | IC50 ([1]; read-out: IC50 value) [nM] | DC50 (GSPT1; [2]) [nM] | IC50 ([1]; read-out: rFP IC50) [nM] | DC50 (GSPT1; [3]) [nM] |
| --- | --- | --- | --- | --- |
| COc1ccccc1CNC(=O)OCc1ccc2c(c1)C(=O)N(C1CCC(=O)NC1=O)C2 (stereo not shown) [Compound 97] | < 1100 | > 300 | – | – |
| Cc1c(Cl)cc(NC(=O)OCc2ccc3c(c2)C(=O)N(C2CCC(=O)NC2=O)C3)cc1OC1CCNC1 (stereo not shown) [Compound 44] | < 1100 | 30 to 300 | – | – |
| O=C1CCC(N2Cc3ccc(COC(=O)Nc4ccc(OC(F)(F)F)cc4)cc3C2=O)C(=O)N1 (stereo not shown) [Compound 154, (2-(2,6-dioxopiperidin-3-yl)-3-oxoisoindolin-5-yl)methyl (4-(trifluoromethoxy)phenyl)carbamate] | – | 30 to 300 | > 1700 | – |
| CC1(C)COc2cc(NC(=O)OCc3ccc4c(c3)C(=O)N(C3CCC(=O)NC3=O)C4)ccc21 (stereo not shown) [Compound 83] | < 1100 | < 30 | – | ≤ 30 |
| O=C1CCC(N2Cc3ccc(COC(=O)Nc4ccc(C5CC5(F)F)cc4)cc3C2=O)C(=O)N1 (stereo not shown) [Compound 101] | – | 30 to 300 | > 1700 | – |
| O=C1CCC(N2Cc3ccc(COC(=O)Nc4cc(F)cc(OC(F)F)c4)cc3C2=O)C(=O)N1 (stereo not shown) [Compound 31] | – | 30 to 300 | > 1700 | – |
| O=C1CCC(N2Cc3ccc(COC(=O)Nc4ccc(N5CCC(F)(F)CC5)nc4)cc3C2=O)C(=O)N1 (stereo not shown) [Compound 78] | – | 30 to 300 | < 500 | – |
| O=C1CCC(N2Cc3ccc(COC(=O)Nc4ccc5c(c4)CCCO5)cc3C2=O)C(=O)N1 (stereo not shown) [Compound 67] | < 1100 | 30 to 300 | – | – |
| O=C1CCC(N2Cc3ccc(COC(=O)Nc4ccc(C5CC5)nc4)cc3C2=O)C(=O)N1 (stereo not shown) [Compound 80] | – | 30 to 300 | < 500 | – |
| O=C1CCC(N2Cc3ccc(COC(=O)Nc4ccc5c(c4)OCC5)cc3C2=O)C(=O)N1 (stereo not shown) [Compound 18] | < 1100 | 30 to 300 | – | – |
| O=C1CCC(N2Cc3ccc(COC(=O)Nc4ccc5c(c4)CCO5)cc3C2=O)C(=O)N1 (stereo not shown) [Compound 66] | – | 30 to 300 | < 500 | – |
| O=C1CCC(N2Cc3ccc(COC(=O)Nc4ccc(N5CCCC(F)(F)C5)nc4)cc3C2=O)C(=O)N1 (stereo not shown) [Compound 73] | – | 30 to 300 | < 500 | – |
| O=C1CCC(N2Cc3ccc(COC(=O)Nc4ccc(N5CCCCC5)nn4)cc3C2=O)C(=O)N1 (stereo not shown) [Compound 75] | – | 30 to 300 | < 500 | – |
| Cc1c(Cl)cc(NC(=O)OCc2ccc3c(c2)C(=O)N(C2CCC(=O)NC2=O)C3)cc1CN1CC2CC1CO2 (stereo not shown) [Compound 13] | < 1100 | < 30 | – | ≤ 30 |
| O=C1CCC(N2Cc3ccc(COC(=O)N4CCC(Oc5ccccc5)C4)cc3C2=O)C(=O)N1 (stereo not shown) [Compound 30] | – | > 300 | < 500 | – |
| Cc1c(Cl)cc(NC(=O)OCc2ccc3c(c2)C(=O)N(C2CCC(=O)NC2=O)C3)cc1OCC1CCNC1 (stereo not shown) [Compound 52] | < 1100 | > 300 | – | – |
| O=C1CCC(N2Cc3ccc(COC(=O)Nc4cccc(OC5CC5)c4)cc3C2=O)C(=O)N1 (stereo not shown) [Compound 93] | < 1100 | 30 to 300 | – | – |
| O=C1CCC(N2Cc3ccc(COC(=O)N4CCN(c5ccccc5)CC4)cc3C2=O)C(=O)N1 (stereo not shown) [Compound 36] | – | > 300 | < 500 | – |
| Cc1cc(C)c(F)c(NC(=O)OCc2ccc3c(c2)C(=O)N(C2CCC(=O)NC2=O)C3)c1 (stereo not shown) [Compound 122, (2-(2,6-dioxopiperidin-3-yl)-3-oxoisoindolin-5-yl)methyl (2-fluoro-3,5-dimethylphenyl)carbamate] | – | 30 to 300 | < 500 | – |
| C[C@@H]1CCCN1c1ccc(NC(=O)OCc2ccc3c(c2)C(=O)N(C2CCC(=O)NC2=O)C3)cn1 (stereo partly shown) [Compound 157] | – | < 30 | < 500 | ≤ 30 |
| O=C1CCC(N2Cc3ccc(COC(=O)Nc4ccc5c(c4)OCCC5)cc3C2=O)C(=O)N1 (stereo not shown) [Compound 92] | < 1100 | < 30 | – | ≤ 30 |
| O=C1CCC(N2Cc3ccc(COC(=O)Nc4ccc5c(c4)CC(F)(F)O5)cc3C2=O)C(=O)N1 (stereo not shown) [Compound 113] | – | 30 to 300 | < 500 | – |
| Cc1c(CN2CCOCC2)cc(NC(=O)OCc2ccc3c(c2)C(=O)N(C2CCC(=O)NC2=O)C3)cc1OC(F)F (stereo not shown) [Compound 25] | < 1100 | < 30 | – | ≤ 30 |
| O=C1CCC(N2Cc3ccc(COC(=O)Nc4cnc5c(c4)COCC5)cc3C2=O)C(=O)N1 (stereo not shown) [Compound 54] | – | > 300 | < 500 | – |
| Cc1cc(C#N)cc(NC(=O)OCc2ccc3c(c2)C(=O)N(C2CCC(=O)NC2=O)C3)c1 (stereo not shown) [Compound 112, (2-(2,6-dioxopiperidin-3-yl)-3-oxoisoindolin-5-yl)methyl (3-cyano-5-methylphenyl)carbamate] | – | 30 to 300 | < 500 | – |

| Structure (SMILES) | IC50 ([1]; read-out: IC50 value) [nM] | DC50 (GSPT1; [2]) [nM] | IC50 ([1]; read-out: rFP IC50) [nM] | DC50 (GSPT1; [3]) [nM] |
| --- | --- | --- | --- | --- |
| O=C1CCC(N2Cc3ccc(COC(=O)Nc4ccc(C5CC5)cc4)cc3C2=O)C(=O)N1 (stereo not shown) [Compound 39] | < 1100 | < 30 | – | ≤ 30 |
| Cc1cc(NC(=O)OCc2ccc3c(c2)C(=O)N(C2CCC(=O)NC2=O)C3)cnc1-c1ccccc1 (stereo not shown) [Compound 88] | < 1100 | < 30 | – | ≤ 30 |
| O=C1CCC(N2Cc3ccc(COC(=O)Nc4ccc(F)c(OC(F)F)c4)cc3C2=O)C(=O)N1 (stereo not shown) [Compound 32] | – | 30 to 300 | > 1700 | – |
| Cc1c(F)cc(NC(=O)OCc2ccc3c(c2)C(=O)N(C2CCC(=O)NC2=O)C3)cc1CN1CCOCC1 (stereo not shown) [Compound 41] | < 1100 | < 30 | – | ≤ 30 |
| Cc1cc(NC(=O)OCc2ccc3c(c2)C(=O)N(C2CCC(=O)NC2=O)C3)cc(C)n1 (stereo not shown) [Compound 7] | < 1100 | 30 to 300 | – | – |
| O=C1CCC(N2Cc3ccc(COC(=O)Nc4cc(CN5CCOCC5)cc(OC(F)(F)F)c4)cc3C2=O)C(=O)N1 (stereo not shown) [Compound 4] | < 1100 | < 30 | – | ≤ 30 |
| COc1cc(NC(=O)OCc2ccc3c(c2)C(=O)N(C2CCC(=O)NC2=O)C3)cnc1C (stereo not shown) [Compound 51] | < 1100 | 30 to 300 | – | – |
| O=C1CCC(N2Cc3ccc(COC(=O)Nc4cnc(N5CCCCC5)nc4)cc3C2=O)C(=O)N1 (stereo not shown) [Compound 64] | < 1100 | 30 to 300 | – | – |
| O=C1CCC(N2Cc3ccc(COC(=O)Nc4ccc(N5CCOCC5)nc4)cc3C2=O)C(=O)N1 (stereo not shown) [Compound 76] | < 1100 | 30 to 300 | – | – |
| O=C1CCC(N2Cc3ccc(COC(=O)Nc4cc(Cl)cc(OCC5CCNC5)c4)cc3C2=O)C(=O)N1 (stereo not shown) [Compound 16] | – | > 300 | < 500 | – |
| O=C1CCC(N2Cc3ccc(COC(=O)Nc4ccc(-c5ccccc5F)nc4)cc3C2=O)C(=O)N1 (stereo not shown) [Compound 84] | – | < 30 | < 500 | ≤ 30 |
| Cc1cc(NC(=O)OCc2ccc3c(c2)C(=O)N(C2CCC(=O)NC2=O)C3)cc(C)c1C#N (stereo not shown) [Compound 108] | – | 30 to 300 | < 500 | – |
| O=C1CCC(N2Cc3ccc(COC(=O)Nc4ccc(N5CCCC5)nc4)cc3C2=O)C(=O)N1 (stereo not shown) [Compound 60] | – | 30 to 300 | < 500 | – |
| Cc1ccc(NC(=O)OC(C)c2ccc3c(c2)C(=O)N(C2CCC(=O)NC2=O)C3)cc1Cl (stereo not shown) [Compound 17] | – | > 300 | > 1700 | – |
| O=C1CCC(N2Cc3ccc(COC(=O)Nc4cc(OC(F)(F)F)ccc4Cl)cc3C2=O)C(=O)N1 (stereo not shown) [Compound 125, (2-(2,6-dioxopiperidin-3-yl)-3-oxoisoindolin-5-yl)methyl(2-chloro-5-(trifluoromethoxy)phenyl)carbamate] | – | > 300 | > 1700 | – |
| O=C1CCC(N2Cc3ccc(COC(=O)NCC4CC4)cc3C2=O)C(=O)N1 (stereo not shown) [Compound 22] | – | > 300 | > 1700 | – |
| O=C1CCC(N2Cc3ccc(COC(=O)Nc4ccc(N5CC6CCC(C5)O6)nc4)cc3C2=O)C(=O)N1 (stereo not shown) [Compound 65] | – | > 300 | < 500 | – |
| O=C1CCC(N2Cc3ccc(COC(=O)Nc4ccc(N5CCC5)nc4)cc3C2=O)C(=O)N1 (stereo not shown) [Compound 107] | – | > 300 | < 500 | – |
| CCc1cc(NC(=O)OCc2ccc3c(c2)C(=O)N(C2CCC(=O)NC2=O)C3)ccn1 (stereo not shown) [Compound 63] | – | > 300 | < 500 | – |
| N#Cc1cc(Cl)cc(NC(=O)OCc2ccc3c(c2)C(=O)N(C2CCC(=O)NC2=O)C3)c1 (stereo not shown) [Compound 111, (2-(2,6-dioxopiperidin-3-yl)-3-oxoisoindolin-5-yl)methyl (3-chloro-5-cyanophenyl)carbamate] | – | 30 to 300 | < 500 | – |
| CN(C)C1CN(c2ccc(NC(=O)OCc3ccc4c(c3)C(=O)N(C3CCC(=O)NC3=O)C4)cn2)C1 (stereo not shown) [Compound 89] | < 1100 | > 300 | – | – |
| O=C1CCC(N2Cc3ccc(COC(=O)Nc4cnc(N5CCCCC5)c(F)c4)cc3C2=O)C(=O)N1 (stereo not shown) [Compound 72] | < 1100 | 30 to 300 | – | – |
| CC1CCN(c2ccc(NC(=O)OCc3ccc4c(c3)C(=O)N(C3CCC(=O)NC3=O)C4)cn2)C1 (stereo not shown) [Compound 69] | – | < 30 | < 500 | ≤ 30 |
| Cc1c(F)cc(NC(=O)OCc2ccc3c(c2)C(=O)N(C2CCC(=O)NC2=O)C3)cc1Cl (stereo not shown) [Compound 116] | – | 30 to 300 | > 1700 | – |
